The conditions of series [1]: in vivo.
Series [2] deals with staphylococci and streptococci. As to the kind of experiment: PK/PD evaluation: observed PK versus EUCAST breakpoint MIC, adjusted by 93% protein binding. The settings on record: MIC 0.125 mg/L.
Procedure: (§1) T > MIC was calculated based on the terminal t1/2 for each patient as a possible marker of the long-term prophylactic effect.
Series [3] can be described thus: clinical. The settings on record: human, in vivo, iv.
The conditions of series [4]: ref [6],[7],[8]; cited from earlier work.
Series [5] has as its system staphylococci and streptococci. The settings on record: in vivo.
Procedure: as §1
For series [6], the system named is plasma proteins (mainly albumin). The conditions noted are these: cited from earlier work. An excerpt:
Currently, off-label use at high dosages for osteoarticular infections deserves attention. […] AUC0-1w/MIC and, partic ...

Series [7] shares this test system. The settings on record: cited from earlier work. The source holds these as a separate data set.
The test system of series [8] is MSSA. The series can be described thus: Vancomycin MIC of patient isolates by ETEST. The settings on record: isolates of individual patients. It is filed as cell-based, Staphylococcus aureus.
Series [9] concerns MRSA. As to the kind of experiment: Vancomycin MIC of patient isolates by ETEST. It is filed as cell-based, Staphylococcus aureus. The conditions noted are these: isolates of individual patients.

Like-named read-outs stand apart in the source and are kept apart here.

One may read the half-life as the time needed for the level to fall by half in the phase considered. Read a high half-life as slow loss. What is called Cmax is the highest concentration seen after dosing. On to `CN[C@H]1C(=O)N[C@@H]2Cc3ccc(cc3)Oc3cc4cc(c3O[C@@H]3O[C@H](C(=O)O)[C@@H](O)[C@H](O)[C@H]3NC(=O)CCCCCCCCC(C)C)Oc3ccc(cc3Cl)[C@@H](O)[C@@H]3NC(=O)[C@H](NC(=O)[C@@H]4NC(=O)[C@@H](NC2=O)c2cc(cc(O)c2Cl)Oc2cc1ccc2O)c1ccc(O)c(c1)-c1c(O[C@H]2O[C@H](CO)[C@@H](O)[C@H](O)[C@@H]2O)cc(O)cc1[C@@H](C(=O)NCCCN(C)C)NC3=O` [DBV, Dalbavancin], for which, in series [1], the “t1/2 reached in multiphasic profile” value was “higher than 500 h”. Besides, the “median AUC0-2w/MIC ratio” value in [2] (dual dose regimen) was 31,366; in [2] (single dose regimen) it was 20,590. Besides, the half-life was 26.1 days in series [3] and 21.9 days in series [3] (1500 mg). The highest concentration (Cmax) in series [3] (1500 mg, C max) worked out at 390 µg/mL. For the same molecule, in series [4], the “half-life (t1/2)” value is given as “around 9 days”. The “AUC0-2w/MIC adjusted by 93% protein binding, all patients” value in series [5] (human) is given as “higher than 17,000”. Further, in series [5], the “AUC0-2w/MIC relative to previously suggested cut-off of 1000 (for staphylococci)” value is “at least 8 folds”. Further, the “T > MIC in all patients” value in series [5] was “higher than 6 weeks”. In addition, the results for the “binding to plasma proteins” value in [6] and in series [7] were 93% and about 98%, respectively.

In the case of `CN[C@H](CC(C)C)C(=O)N[C@H]1C(=O)N[C@@H](CC(N)=O)C(=O)N[C@H]2C(=O)N[C@H]3C(=O)N[C@H](C(=O)N[C@H](C(=O)O)c4cc(O)cc(O)c4-c4cc3ccc4O)[C@H](O)c3ccc(c(Cl)c3)Oc3cc2cc(c3O[C@@H]2O[C@H](CO)[C@@H](O)[C@H](O)[C@H]2O[C@H]2C[C@](C)(N)[C@H](O)[C@H](C)O2)Oc2ccc(cc2Cl)[C@H]1O` [Vancomycin, vancomycin], the “MIC for Vancom.” value is at most 0.5 µg/mL in series [8] and 1 µg/mL in series [9].

The values are drawn from article PMC8533485 (Biomedicines, 2021).
